# Test results published in patent US4260806A, “Carbocyclic thromboxane A2 analogues” (priority 1979, dated 1981).
# Read-outs that look alike come from different tables or passages of the source.
# Key:
# [1] = test system: blood platelet aggregation; conditions: literature; cited from earlier work
# [2] = test system: formation of thromboxane B2; test: formation of thromboxane B2
# [3] = test system: cat coronary arteries; test: constriction of isolated perfused cat coronary arteries (perfusion pressure at constant flow); format: cell-based
# Experimental: Thromboxane A2 analogues (up to 4 μl of a 2.5 mM solution in ethanol) were tested for their effects on cat coronary arteries continuously perfused with 10 ml Krebs-Henseleit solution as described below.
# Cats of either sex (2.5-3.5 kg) were anesthetized with sodium pentobarbital (30 mg/kg) given intravenously. […] A 20-gauge stainless steel cannula was inserted into the right coronary artery via the coronary ostium. Distal to the cannula, approximately 1 cm of coronary artery was dissected free of surrounding tissue. The section of right coronary artery with the cannula in place was excised from the heart and immediately transferred to a constant flow perfusion apparatus.
# The perfusion apparatus consists of a reservoir containing 20 ml of warm (37° C.) oxygenated (95% O2 +5% CO2) K-H solution which bathes the coronary artery and serves as recirculating perfusate. An increase in perfusion pressure signifies […]. Following an initial 1 hr. equilibrium period, vascular responsiveness was established by adding 25 mM KCl. […] Fresh K-H dilutions of stock thromboxane analog concentrations were added to the perfusate reservoir in 0.1-0.2 ml volumes. […] Constriction of the arteries was induced by addition of 15 or 30 nM 9,11-azo-prostaglandinendoperoxide (azo-PGH2), or 1 μM 9,11-methanoepoxy-PGH2.
# [4] = test system: human platelet-rich plasma; test: platelet aggregation in citrated human platelet-rich plasma (aggregometer); format: cell-based
# Experimental: Platelet aggregation was studied in an aggregometer (Chronolog Corp., Phila., PA) using 0.5 ml citrated human platelet-rich plasma at 35° C. One minute after addition of analogue (up to 2 μl of a 25 mM solution in ethanol) aggregation was initiated by addition of sodium arachidonate (0.3-0.5 mM), ADP (2 μM) collagen (1 μg/ml), epinephrine (50 μM), 9,11-azo-PGH2 (0.1-0.6 μM). The analogues were also tested for their effects on the inhibition of ADP-induced aggregation by 2 nM prostacyclin or 20 nM prostaglandin D2.
# [5] = test system: New Zealand white rabbits; test: effect of CTA2 on intact anesthetized rabbits; format: in vivo, rabbit
# Experimental: To study the effect of CTA2 on intact animals, New Zealand white rabbits 2-3.5 kg were anesthetized with pentobarbital sodium (25 mg/kg) and placed in the supine position. The right femoral and external jugular veins and the left common carotid artery were cannulated with polyethylene catheters. Standard limb needle electrodes were placed subcutaneously for recording the electrocardiogram (ECG). The trachea was cannulated with a glass tube connected to a pressure transducer for the recording of airway pressure. Mean arterial blood pressure (MABP), central venous pressure (CVP), airway pressure, and lead III of the ECG were continuously recorded on a Grass Model 7 oscillographic recorder. Sodium arachidonate (95% pure, Sigma Chamical) at 2.0 mg/kg or CTA2 (125 μg/kg) were injected into the […], and the rabbit observed until death. Two ml blood samples were drawn into 25 mM EDTA just prior to injection of drug and just prior to death for radio-immunoassay of thromboxane B2.
# [6] = test system: coronary artery; conditions: normal and high concentrations; literature; cited from earlier work
# [7] = cited from earlier work
compound,measurement,setting,value
"CCCCCC/C=C/C1C2CC(ON2)C1C/C=C\CCCC(=O)O (stereo not drawn) [15-deoxy-9,11-epoxyimino-PGH2]",effect on platelet aggregation,[1],inhibits platelet aggregation
"CCCCCC/C=C/C1C2CC(N=N2)C1C/C=C\CCCC(=O)O (stereo not drawn) [15-deoxy-9, 11-azo-PGH2]",effect on platelet aggregation,[1],inhibits platelet aggregation
"CCCCC[C@H](O)/C=C/C1CC2CC(C2)C1C/C=C\CCCC(=O)O (stereo partly drawn) [CTA2, Carbocyclic Thromboxane A2, free acid]",inhibition of the formation of thromboxane B2,[2],selectively inhibits
same,rank order of constrictor potency,"[3]; CTA2 vs azo-PGH2 >9,11-methanoepoxy-PGH2 >9,11 epoxymethano-PGH2 >>PGH2 >>Thromboxane B2",more potent a constrictor
same,vasoconstricting potency compared with natural thromboxane A2,[3]; cat coronary arteries,potencies comparable to those of the natural thromboxane A2
same,"antagonism of the coronary constrictor effects of 9,11-methanoepoxy PGH2",[3]; concentrations up to 10^-7 M,did not antagonize
same,constriction (increased perfusion pressure at constant flow),[3]; isolated perfused cat coronary arteries,dose-dependent constriction
same,"potency relative to 9,11-azo PGH2 (EC20)","[3]; relative to 9,11-azo PGH2",4 times
same,potency relative to the other two PGH2 derivatives (EC20),"[3]; relative to 9,11-methanoepoxy PGH2 and 9,11-epoxymethano PGH2",5-6 times
same,"potency relative to TB2, by concentration giving a 20 mm Hg increase in coronary perfusion pressure (EC20)",[3]; relative to TB2,"10,000 times"
same,inhibition of arachidonic acid induced platelet aggregation,[4],potent inhibitor
same,intrinsic ability to aggregate platelets,[4],no intrinsic ability to agreggate plateletes
same,effect on arachidonic acid induced aggregation,[4]; 1-2 μM,delayed the onset of platelet aggregation without actually inhibiting the magnitude of the overall response
same,inhibition of platelet aggregation to a variety of prostanoids,"[4]; arachidonic acid, 9-11-azo PGH2, 9,11-methanoepoxy PGH2 and 9,11-epoxymethano PGH2",very potent inhibitor
same,prevention of induced platelet aggregation,[4]; at 4 to 5 μM,completely prevented
same,prevention of induced platelet aggregation,"[4]; lower concentrations, 1 to 4 μM",only partially protective
same,induction of platelet aggregation in vitro,[4]; up to concentrations of 100 μM,failed to induce platelet aggregation
same,time of death after injection,"[5]; anesthetized rabbit, 125 μg/kg intravenously, typical response",nine
same,sudden cardiac death in rabbits,[5]; severe myocardial ischemia without coronary thrombosis,induces sudden cardiac death
"CCCCC[C@@H](O)/C=C/[C@H]1C[C@H]2C[C@@H]([C@@H]1C/C=C\CCCC(=O)O)C2(C)C [PTA2, pinane thromboxane A2, reference compound]",antagonism of the coronary constrictor effects of CTA2,[3],almost completely antagonized
same,effect on coronary artery contraction,[6],inhibits coronary artery contraction
"CCCCC[C@H](O)/C=C/[C@H]1O[C@H]2C[C@H](O2)[C@@H]1C/C=C\CCCC(=O)O [TA2, thromboxane A2]",half-life,[7]; pH 7.4 and 37° C.,30 s
"CCCCC[C@H](O)/C=C/[C@@H]1[C@H]2C/C(=C/CCCC(=O)O)O[C@H]2C[C@H]1O [prostacyclin, 6,9 α-oxido-11α, 15 α-dihydroxyprosta (Z), 5, E (13)-dienoic acid]",half-life,[7]; physiological conditions,about 2 minutes
same,effect on platelet aggregation,[1],most potent inhibitor of blood platelet aggregation
